These results are taken from ChEMBL document CHEMBL5113383, “Application of the All-Hydrocarbon Stapling Technique in the Design of Membrane-Active Peptides” (J Med Chem, 2022).

Positions of bridges follow the written chain, without caps; N, C: chain ends. Non-standard residues stand in square brackets, D forms with d. Residues, ends and D or L forms follow the SMILES beside them. S5 = C=CCCC[C@](C)(N)C(=O)O; Nle = CCCC[C@H](N)C(=O)O Where only a bound is given, the exact number is not on record here.

Series [1] can be described thus: Hemolytic activity in rabbit erythrocytes. It counts as toxicity, cell-based, Oryctolagus cuniculus, Erythrocyte.
Series [2] can be described thus: Hemolytic activity in human erythrocytes. It counts as toxicity, cell-based, Erythrocyte.
A short description of series [3]: Hemolytic activity in human erythrocytes incubated for 1 hr. It counts as toxicity, cell-based, Erythrocyte. As to conditions: read-out: Activity.
The nature of series [4]: Hemolytic activity in human erythrocytes incubated for 30 mins. It counts as toxicity, cell-based, Erythrocyte.

In the case of `CC[C@H](C)[C@H](NC(=O)CNC(C)=O)C(=O)NCC(=O)N[C@@H](C)C(=O)N[C@H](C(=O)N[C@@H](CC(C)C)C(=O)N[C@@H](CCCCN)C(=O)N[C@H](C(=O)N[C@@H](CC(C)C)C(=O)N[C@H](C(=O)N[C@H](C(=O)NCC(=O)N[C@@H](CC(C)C)C(=O)N1CCC[C@H]1C(=O)N[C@]1(C)CCCCCC/C=C\CCC[C@@](C)(C(=O)N[C@@H](CCCCN)C(=O)N[C@@H](CCCNC(=N)N)C(=O)N[C@@H](CCC(N)=O)C(=O)N[C@@H](CCC(N)=O)C(N)=O)NC(=O)[C@H](CCCCN)NC(=O)[C@H]([C@@H](C)CC)NC(=O)[C@H](Cc2c[nH]c3ccccc23)NC(=O)[C@H](CO)NC(=O)[C@H]([C@@H](C)CC)NC(=O)[C@H](CC(C)C)NC1=O)[C@@H](C)O)[C@@H](C)O)C(C)C)C(C)C`, in series [1], the HC50 is 700 nM. Regarding `CC[C@H](C)[C@H](NC(=O)CNC(C)=O)C(=O)NCC(=O)N[C@@H](C)C(=O)N[C@H](C(=O)N[C@@H](CC(C)C)C(=O)N[C@@H](CCCCN)C(=O)N[C@H](C(=O)N[C@@H](CC(C)C)C(=O)N[C@H](C(=O)N[C@H](C(=O)NCC(=O)N[C@@H](CC(C)C)C(=O)N1CCC[C@H]1C(=O)N[C@@H](C)C(=O)N[C@@H](CC(C)C)C(=O)N[C@H](C(=O)N[C@@H](CO)C(=O)N[C@@H](Cc1c[nH]c2ccccc12)C(=O)N[C@H](C(=O)N[C@@H](CCCCN)C(=O)N[C@@H](CCCNC(=N)N)C(=O)N[C@@H](CCCCN)C(=O)N[C@@H](CCCNC(=N)N)C(=O)N[C@@H](CCC(N)=O)C(=O)N[C@@H](CCC(N)=O)C(N)=O)[C@@H](C)CC)[C@@H](C)CC)[C@@H](C)CC)[C@@H](C)O)C(C)C)C(C)C`, in series [1], the HC50 was 2600 nM. As for `CC[C@H](C)[C@H](NC(=O)CN)C(=O)N[C@@H](CCSC)C(=O)N[C@@H](CO)C(=O)N[C@@H](CO)C(=O)N[C@@H](CC(C)C)C(=O)N[C@@H](CCSC)C(=O)N[C@@H](CCCCN)C(=O)N[C@@H](CCCCN)C(=O)N[C@@H](CC(C)C)C(=O)N[C@@]1(C)CCC/C=C\CCC[C@@](C)(C(=O)N[C@@H](CCCCN)C(N)=O)NC(=O)[C@H]([C@@H](C)CC)NC(=O)[C@H](Cc2cnc[nH]2)NC(=O)[C@H](C)NC1=O` (H-GIMSSLMKKL[S5]AHI[S5]K-NH2; staple (Z) 11-15), the HC50 in series [2] was determined as 125 µM. Turning to `CC(C)[C@@H]1NC(=O)[C@@](C)(NC(=O)[C@H](C)NC(=O)[C@H](CCCCN)NC(=O)CNC(=O)[C@H](Cc2ccccc2)NC(=O)[C@H](CCCCN)NC(=O)[C@H](CCCCN)NC(=O)[C@H](CCCCN)NC(=O)[C@H](CO)NC(=O)[C@H](Cc2cnc[nH]2)NC(=O)[C@]2(C)CCC/C=C\CCC[C@](C)(NC(=O)CN)C(=O)NCC(=O)N[C@@H](CCCCN)C(=O)N[C@@H](Cc3ccccc3)C(=O)N2)CCC/C=C\CCC[C@@](C)(C(=O)N[C@@H](C)C(=O)N[C@@H](CCCCN)C(=O)N[C@@H](CCCCN)C(N)=O)NC(=O)[C@H](CCC(=O)O)NC(=O)CNC1=O` (H-G[S5]GKF[S5]HSKKKFGKA[S5]VGE[S5]AKK-NH2; staple (Z) 2-6, 16-20), in series [3], the hemolysis at 1 h was under 1%. Moreover, the HC50 in series [2] was over 400 µM. For `CC(C)C[C@@H]1NC(=O)[C@H](CCCCN)NC(=O)[C@H](Cc2c[nH]c3ccccc23)NC(=O)[C@@](C)(NC(=O)[C@@H](N)CCCCN)CCC/C=C\CCC[C@@](C)(C(=O)N[C@@H](CCCCN)C(N)=O)NC1=O` (H-K[S5]WKL[S5]K-NH2; staple (Z) 2-6), the HC50 at 0.5 h in series [4] is under 1 µM.

`CCCC[C@@H]1NC(=O)[C@H](CCCCN)NC(=O)[C@H](Cc2c[nH]c3ccccc23)NC(=O)[C@@](C)(NC(=O)[C@@H](N)CCCCN)CCC/C=C\CCC[C@@](C)(C(=O)N[C@@H](CCCCN)C(N)=O)NC1=O` (H-K[S5]WK[Nle][S5]K-NH2; staple (Z) 2-6) yielded an HC50 at 0.5 h in series [4] of 3.3 µM.

A word on the HC50: it is the concentration that lyses half of the red blood cells. The low end stands for more damage to red cells, the high end for less damage to red cells.
